In patent publication US20190382358A1, “HETEROCYCLIC COMPOUNDS AS PESTICIDES” (Bayer CropScience Aktiengesellschaft, priority 2016, published 2019):

Legend:
Assay type in all cases: in vivo
Nezara viridula [1] = assay: Nezara viridula spray test (cotton plants, feeding control); details: 100 ppm, after 3 days, larvae
Description: (§1) Nezara viridula—Spray Test
(§2) To produce a suitable preparation of active compound, 1 part by weight of active compound is mixed with the stated amount of solvent and is diluted with water to the desired concentration. Further test concentrations are prepared by dilution with water Ammonium salt and/or penetration enhancer (rapeseed oil methyl esters) in a dosage of 1000 ppm are added to the desired concentration if necessary.
Cotton plants (Gossypium hirsutum) are treated by being sprayed with the preparation of the active compound of the desired concentration and are infested with 10 larvae per plant of the green plant bug (Nezara viridula).
(§3) After 3 days feeding control in % is determined. 100% means there is no feeding damage visible and 0% means the plant damage corresponds to that of the untreated control plants.

Spodoptera frugiperda = Spodoptera frugiperda spray test; details: 168 h, after 7 days, maize leaf sections, larvae
Description: Spodoptera frugiperda—Spray Test
(§4) To produce a suitable preparation of active compound, 1 part by weight of active compound is mixed with the stated amount of solvents and is diluted with water, containing an emulsifier concentration of 1000 ppm, to the desired concentration. Further test concentrations are prepared by dilution with emulsifier containing water.
Maize (Zea mays) leaf sections are sprayed with a preparation of the active ingredient of the desired concentration. Once dry, the leaf sections are infested with fall armyworm larvae (Spodoptera frugiperda).
After 7 days mortality in % is determined. 100% means all caterpillars have been killed and 0% means none of the caterpillars have been killed.

Diabrotica balteata = Diabrotica balteata spray test; details: 160 μg/well; after 7 days; wheat seeds, larvae of banded cucumber beetle
Description: Diabrotica balteata-Spray Test
as §4, with “solvent,” for “solvents”, “and the concentrate” for “and”
Soaked wheat seeds (Triticum aestivum) are placed in a multiple well plate filled with agar and some water and are incubated for 1 day to germinate (5 seeds per well). The germinated wheat seeds are sprayed with a test solution containing the desired concentration of the active ingredient. Afterwards each unit is infected with 10-20 larvae of the banded cucumber beetle (Diabrotica balteata).
After 7 days efficacy in % is determined. 100% means all the seedlings have grown up like in the untreated, uninfected control; 0% means none of the seedlings have grown.

Phaedon cochleariae = Phaedon cochleariae spray test; details: for mortality at 500 g/ha: Phaedon cochleariae, in Brassica rapa, foliar, 168 h, read-out: mortality in %
Description: Phaedon cochleariae—Spray Test
as §4
Chinese cabbage (Brassica pekinensis) leaf disks are sprayed with a preparation of the active ingredient of the desired concentration. Once dry, the leaf disks are infested with mustard beetle larvae (Phaedon cochleariae).
After 7 days mortality in % is determined. 100% means all beetle larvae have been killed and 0% means none of the beetle larvae have been killed.

Nezara viridula [2] = assay: Nezara viridula spray test (barley plants, mortality); details: for mortality at 20 g/ha / mortality at 100 g/ha / mortality at 500 g/ha: Nezara viridula, 96 h, read-out: mortality in %
Description: as §1
To produce a suitable preparation of active compound, 1 part by weight of active compound is mixed with the stated amount of solvent, and the concentrate is diluted with water, containing an emulsifier concentration of 1000 ppm, to the desired concentration Ammonium salt and/or penetration enhancer in a dosage of 1000 ppm are added to the desired concentration if necessary.
Barley plants (Hordeum vulgare) infested with larvae of the southern green stink bug (Nezara viridula) are sprayed with a test solution containing the desired concentration of the active ingredient.
After 4 days, mortality in % is determined. 100% means all the stink bugs have been killed; 0% means none of the stink bugs have been killed.

Tetranychus urticae = Tetranychus urticae spray test OP-resistant; details: foliar, 144 h, after 6 days, French bean leaf disks
Description: Tetranychus urticae—Spray Test OP-Resistant
as §4
French bean (Phaseolus vulgaris) leaf disks infected with all instars of the two spotted spidermite (Tetranychus urticae), are sprayed with a preparation of the active ingredient of the desired concentration.
After 6 days mortality in % is determined. 100% means all spider mites have been killed and 0% means none of the spider mites have been killed.

Euschistus heros = Euschistus heros spray test (feeding control); details: 100 ppm; after 3 days; kidney bean plants, larvae
Description: Euschistus heros—Spray Test
as §2
Kidney bean plants (Phaseolus vulgaris) are treated by being sprayed with the preparation of the active compound of the desired concentration and are infested with 10 larvae per plant of the brown stink bug (Euschistus heros).
as §3

Meloidogyne incognita = Meloidogyne incognita test; details: 20 ppm; after 14 days; salad seedlings, eggs and larvae
Description: Meloidogyne incognita—Test
To produce a suitable preparation of active compound, 1 part by weight of active compound is mixed with the stated amount of solvent, and the concentrate is diluted with water to the desired concentration.
Vessels are filled with sand, a solution of the active ingredient, a suspension containing eggs and larvae of the southern root-knot nematode (Meloidogyne incognita) and salad seeds. The salad seeds germinate and the seedlings grow. Galls develop in the roots.
After 14 days the nematicidal activity is determined on the basis of the percentage of gall formation. 100% means no galls were found and 0% means the number of galls found on the roots of the treated plants was equal to that in untreated control plants.

Nilaparvata lugens = Nilaparvata lugens spray test; details: 96 h, after 4 days, rice plants, larvae
Description: Nilaparvata lugens—Spray Test
To produce a suitable preparation of active compound, 1 part by weight of active compound is mixed with the stated amount of solvents and is diluted with water, containing an emulsifier concentration of 1000 ppm, to the desired concentration. Further test concentrations are prepared by dilution with emulsifier containing water. Ammonium salt and/or penetration enhancer in a dosage of 1000 ppm are added to the desired concentration if necessary.
Rice plants (Oryza sativa) are treated by being sprayed with the desired concentration of the active compound and are infested with larvae of the brown planthopper (Nilaparvata lugens).
After 4 days mortality in % is determined. 100% means all planthoppers have been killed and 0% means none of the planthoppers have been killed.

SMILES	efficacy in % (Diabrotica balteata) [%]	mortality at 500 g/ha (Phaedon cochleariae) [%]	mortality at 100 g/ha (Nezara viridula [2]) [%]	mortality at 500 g/ha (Nezara viridula [2]) [%]	nematicidal activity (% reduction of galls vs untreated control) (Meloidogyne incognita) [%]	other results
O=C(Nc1nc(-c2c(F)ccc(Br)c2F)ns1)c1cccnc1C(F)(F)F [Compound I-1-51, N-[3-(3-bromo-2,6-difluorophenyl)-1,2,4-thiadiazol-5-yl]-2-(trifluoromethyl)nicotinamide]	100	100	100	100		feeding control in % (Nezara viridula [1]): 100%; mortality at 500 g/ha (Spodoptera frugiperda): ≥ 83%; mortality at 20 g/ha (Nezara viridula [2]): 100%; mortality at 500 g/ha (Tetranychus urticae): 90%
O=C(Nc1nc(-c2c(F)ccc(F)c2F)ns1)c1cccnc1C(F)F [Compound I-1-27]						feeding control in % (Nezara viridula [1]): 100%
O=C(Nc1nc(-c2cc(F)cc(F)c2F)ns1)c1ccccc1Cl [Compound I-1-21]						mortality in % (Nezara viridula [2]; 500 g/ha, after 4 days, barley plants, larvae): 80%
O=C(Nc1nc(-c2c(F)ccc(Cl)c2F)ns1)c1cccnc1C(F)(F)F [Compound I-1-6, N-[3-(3-chloro-2,6-difluorophenyl)-1,2,4-thiadiazol-5-yl]-2-(trifluoromethyl)nicotinamide]		100	100	100		mortality at 500 g/ha (Spodoptera frugiperda): ≥ 83%; mortality at 20 g/ha (Nezara viridula [2]): 100%; mortality at 500 g/ha (Tetranychus urticae): 90%
O=C(Nc1nc(-c2c(F)c(F)cc(F)c2F)ns1)c1ccccc1C(F)(F)F [Compound I-1-34]	100					
O=C(Nc1nc(-c2c(F)c(F)cc(F)c2F)ns1)c1cccnc1C(F)(F)F [Compound I-1-33]	100				90	feeding control in % (Euschistus heros): 100%; feeding control in % (Nezara viridula [1]): 100%
O=C(Nc1nc(-c2c(F)ccc(C(F)(F)F)c2F)ns1)c1ccccc1C(F)(F)F [Compound I-1-3, N-{3-[2,6-difluoro-3-(trifluoromethyl)phenyl]-1,2,4-thiadiazol-5-yl}-2-(trifluoromethyl)benzamide]		100	100	100		
O=C(Nc1nc(-c2c(F)ccc(C(F)(F)F)c2F)ns1)c1cccnc1C(F)(F)F [Compound I-1-2, N-{3-[2,6-difluoro-3-(trifluoromethyl)phenyl]-1,2,4-thiadiazol-5-yl}-2-(trifluoromethyl)nicotinamide]		100	100	100	90	feeding control in % (Euschistus heros): 85%; mortality at 500 g/ha (Nilaparvata lugens): ≥ 90%; mortality at 500 g/ha (Spodoptera frugiperda): ≥ 83%; mortality at 20 g/ha (Nezara viridula [2]): 100%; mortality at 500 g/ha (Tetranychus urticae): 90%
O=C(Nc1nc(-c2c(F)cc(C(F)(F)F)cc2F)ns1)c1cccnc1C(F)(F)F [Compound I-1-1]		100				mortality at 500 g/ha (Tetranychus urticae): 90%
O=C(Nc1nc(-c2c(F)ccc(F)c2F)ns1)c1ccccc1Cl [Compound I-1-30]	100				90	
O=C(Nc1nc(-c2c(F)c(F)cc(F)c2F)ns1)c1nccnc1C(F)(F)F [Compound I-1-35]					90	
O=C(Nc1nc(-c2cc(Cl)cc(F)c2F)ns1)c1c(F)cccc1F [Compound I-1-46]						mortality in % (Phaedon cochleariae; 500 g/ha, after 7 days, Chinese cabbage leaf disks, larvae): 83%
O=C(Nc1nc(-c2c(F)ccc(F)c2F)ns1)c1cccnc1C(F)(F)F [Compound I-1-24]	100				90	
Cc1ccc(F)c(-c2nsc(NC(=O)c3cccnc3C(F)(F)F)n2)c1F [Compound I-1-52, N-[3-(2,6-difluoro-3-methylphenyl)-1,2,4-thiadiazol-5-yl]-2-(trifluoromethyl)nicotinamide]		100	100	100		
